Here are results for one compound from US20250222028A1, “ENGINEERED IMMUNE CELL PLATFORM” (Cancer Research Technology Limited, priority 2022, published 2025).

For the test, the system named is P815 target cells. As to the kind of experiment: VITAL cytotoxicity assay, human CD8+ CTLs with P815 target cells. It counts as cell-based. The following applies: 10 μM, pre-incubation 40-50 mins, vs carrier control. The protocol: FIG. 3. L-type Cav channel agonists increase expression of GLI1 and enhance specific cell killing by human CD8+ CTLs. Naïve human CD8+ T cells were purified from the buffy coat layer of blood isolated from healthy donors, and were stimulated using ImmunoCult™ CD3/CD28/CD2 human T-Cell Activator and again restimulated at day 10 for 3 days. (A) Human CTLs were restimulated on day 15-20 for 24 h with plate-bound anti-CD3 in the presence of 10 μM of FPL64176 or carrier control before RNA was extracted for qRT-PCR analysis. n=1 healthy donor. TBP is used as a reference gene. (B) Updated graph of (A) showing n=3 independent experiments/healthy donors. Gli1 expression is normalised to carrier. (C) Between day 16 and 24, CD8+ T cells were co-cultured with P815 target cells at indicated effector to target ratios and subjected to a VITAL cytotoxicity assay in the presence of 10 μM FPL64176 (squares) or carrier control (circles). (D) Same data as (C) represented differently. […] Error bars indicate SD. p values were calculated using an unpaired two-tailed Student's t test (B) or a two-way ANOVA (C/D). * indicates p<0.05, ** indicates p<0.01, **** indicates p<0.0001.
A VITAL assay was subsequently performed to assess the role of L-type Cav agonists with regards to specific tumour cell killing by human CD8+ CTLs. […]

As to `COC(=O)c1c(C)[nH]c(C)c1C(=O)c1ccccc1Cc1ccccc1` [FPL 64176], the “improvement of cell killing” value is reported as roughly 70%.
